These are literature values, as cited in patent US5929038A, “Pharmaceutical preparations which inhibit hepatitis B virus (HBV) replication” (Choongwae Pharmaceutical Co., Ltd., priority 1992, dated 1999).

This series deals with hepatitis B (HBV infection). The following applies: cited from earlier work.

Regarding `Nc1ncnc2c1ncn2[C@@H]1O[C@H](COP(=O)(O)O)[C@@H](O)[C@@H]1O` [ara-AMP, reference compound], the “suppression of HBV infection” value (clinical use) is “transiently suppress HBV infection”. Besides, under “in vivo”, the toxicities result is “often serious toxicities”.
